Inconclusive results are not listed. Activity calls are given as the source filed them.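 The calls were made as follows: active = fitted curve reaches -35% activity change at up to twice the top valid dose, with every replicate test run active; inconclusive = replicate test runs disagree on the call; inactive = all runs inactive, no -35% crossing or signal rises.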

Tested on in one assay: not listed separately
As to the kind of experiment: inhibition of EBV LMP1-induced NF-kB luciferase – cell-based, HEK293, dry powder, dose response (AID 624373). The note with it: HEK293 LMP1-TES2 NF-kB luciferase reporter, 16 h; at 15 µM (top of the series). A general note: A reporter such as luciferase makes a cellular process visible.
For the compound `C=C1C[C@]23C[C@@]1(O)CC[C@H]2[C@@]12C=C[C@H](O)[C@@](C)(C(=O)O1)[C@H]2[C@@H]3C(=O)O`, the activity change, negative = inhibition was 2.14% (inactive).

Staying with this assay, now noted: HEK293 LMP1-TES2 NF-kB luciferase reporter, 16 h; at 26 µM (top of the series).
In the case of `CCc1ccc(/C=C2\SC(=S)N(CCCC(=O)Nc3ccccn3)C2=O)cc1`, the activity change, negative = inhibition is 12.1% (inactive).
With `C[C@H](CO)N1C[C@H](C)[C@@H](CN(C)CC2CCCCC2)OCCCC[C@H](C)Oc2ccc(NC(=O)Nc3cccc4ccccc34)cc2C1=O`, the activity change, negative = inhibition is 27.7% (inactive).
`Cc1ccc(S(=O)(=O)NC(CC(C)C)C(=O)NCC(c2ccco2)N2CCCCC2)cc1` (centres undefined): the activity change, negative = inhibition is -8.46% (inactive).
The same measure, in the same setting: the same measure for `Cc1cc(NC(=O)c2ccc3c(c2)OCCO3)no1`: 1.38% (inactive); for `COc1ccc(-c2csc3ncnc(NCCN4CCOCC4)c23)cc1`: 30.3% (inactive).
On the same count and under the same terms, the same measure for `Cc1c(NC(=O)c2cccc(NC(=O)COc3ccccc3C#N)c2)c(=O)n(-c2ccccc2)n1C`: 23.3% (inactive); for `C[C@@H]1CCCCO[C@H](CN(C)C(=O)c2ccccc2)[C@H](C)CN([C@@H](C)CO)C(=O)c2cc(NC(=O)Nc3ccc(F)cc3)ccc2O1`: 4.26% (inactive); for `C[C@@H]1CCCCO[C@H](CN(C)CC2CCCCC2)[C@H](C)CN([C@@H](C)CO)C(=O)c2cc(NC(=O)NC3CCCCC3)ccc2O1`: 56.5% (inactive).
Take `CCc1sc(C(=O)Nc2ncccc2O)cc1C`: the activity change, negative = inhibition was -12.6% (inactive).
The same measure, in the same setting: as for `Oc1cccc(C(Nc2nccs2)c2ccc3cccnc3c2O)c1` (centres undefined), the figure is 33.9% (inactive); as for `C[C@@H]1CCCCO[C@@H](CN(C)Cc2ccccc2)[C@H](C)CN([C@H](C)CO)C(=O)c2cc(NC(=O)Nc3ccc4c(c3)OCO4)ccc2O1`, 10.6% (inactive).
Still for that read-out and setting: as for `C[C@@H]1CN([C@@H](C)CO)C(=O)c2cc(NC(=O)Nc3ccc(C(F)(F)F)cc3)ccc2O[C@@H](C)CCCCO[C@H]1CN(C)Cc1ccc(C(F)(F)F)cc1`, the figure is 52.3% (inactive); as for `CNC[C@@H]1Oc2ccc(NS(=O)(=O)c3cn(C)cn3)cc2CC(=O)N([C@H](C)CO)C[C@@H]1C`, 37.6% (inactive); as for `O=C(Nc1cc(C(F)(F)F)cc(C(F)(F)F)c1)Nc1cnn(-c2ccc([N+](=O)[O-])cc2)c1C(F)(F)F`, 10.5% (inactive).
Still for that read-out and setting: the same measure for `COc1ccc(-c2cc3nc4n(c(=O)c3s2)CCC4)cc1`: 23.4% (inactive); for `c1ccc(-c2cn3c4c(sc3n2)CCCC4)cc1`: 7.22% (inactive).

A further assay relates to HEK293 LMP1-TES2 NF-kB luciferase reporter, 16 h. The assay is described as above.
Conditions: not given
Regarding `O=C1/C(=C/c2ccncc2)SC(=S)N1Cc1ccccc1`, the AC35 was 18200 nM.
Consider `Nc1ccn([C@@H]2O[C@H](CO)[C@@H](O)C2O)c(=O)n1` (some centres undefined), for which the AC35 is 8540 nM.
Same read-out and setting: as for `C=C1C[C@]23C[C@@]1(O)CC[C@@H]2c1cccc(C)c1[C@@H]3C(=O)O`, the figure is 4340 nM.
With `C/C(=N\NC(=S)N1CCCCCC1)c1ccccn1`, the AC35 is 216 nM.
Still for that read-out and setting: the same measure for `C/C(=N\NC(=S)Nc1ccccc1)c1ccccn1`: 313 nM.
Consider `C/C(=N\NC(=S)N1CCC1)c1ccccn1`, for which the AC35 is 679 nM.
Regarding `C/C(=N\NC(=S)N1CC2CCC(CC2)C1)c1ccncn1`, the AC35 was 2500 nM.
On the same count and under the same terms, as for `CCN1CCN(C(c2cccnc2)c2cc(Cl)c3cccnc3c2O)CC1` (centres undefined), the figure is 3320 nM.
For the compound `CC12CCC3C(CC=C4CC(O)CCC43CO)C1CCC2OC(=O)c1ccccc1` (centres undefined), the AC35 is 3060 nM.
The same measure, in the same setting: as for `CSC(=S)N/N=C(\C)c1cccc(C)n1`, the figure is 3010 nM; as for `Fc1ccc2c(c1)c1nnc(SCCN3CCOCC3)nc1n2Cc1ccccc1`, 3940 nM.
Still for that read-out and setting: the same measure for `C[C@H](CO)N1C[C@H](C)[C@H](CN(C)C(=O)Nc2ccc(C(F)(F)F)cc2)OCCCC[C@H](C)Oc2ccc(NC(=O)Nc3ccc(F)cc3)cc2C1=O`: 5400 nM; for `CCC(Sc1nnc2c3ccccc3n(Cc3ccc(Br)cc3)c2n1)C(=O)NCCCN1CCOCC1` (centres undefined): 3200 nM.
The same measure, in the same setting: the same measure for `c1ccc(Cn2c3ccccc3c3nnc(SCCN4CCCCC4)nc32)cc1`: 18700 nM.
With `C[C@H](CO)N1C[C@H](C)[C@@H](CN(C)CC2CC2)OCCCC[C@H](C)Oc2ccc(NC(=O)Nc3cccc4ccccc34)cc2C1=O`, the AC35 was 351 nM.
The same measure, in the same setting: as for `COc1ccc2[nH]c(C(=O)N/N=C/c3ccc(O)cc3O)cc2c1`, the figure is 3630 nM; as for `COCCCNC(=O)C(C)Sc1nnc2c3cc(C)ccc3n(Cc3ccccc3F)c2n1` (centres undefined), 5010 nM; as for `C[C@H]1CCCCO[C@@H](CN(C)CC2CCCCC2)[C@@H](C)CN([C@@H](C)CO)C(=O)c2cc(NC(=O)C3CCCCC3)ccc2O1`, 9980 nM.
Still for that read-out and setting: as for `O=c1[nH]c(=O)n([C@H]2C[C@H](O)[C@@H](CO)O2)cc1C(F)(F)F`, the figure is 3090 nM; as for `C/C(=N\NC(=S)N1CCCCC1)c1ccccn1`, 212 nM; as for `CC1CN(C(=O)CSc2nnc3c4ccccc4n(Cc4cccc(Cl)c4)c3n2)CCN1C(=O)c1ccccc1F` (centres undefined), 4360 nM.
Take `C/C(=N\NC(=S)Nc1ccccc1Cl)c1ccccn1`: the AC35 is 457 nM.
On the same count and under the same terms, as for `CCCSc1nnc2c3ccccc3n(Cc3ccccc3)c2n1`, the figure is 3400 nM; as for `C/C(=N\NC(=S)N1CCCC1)c1ccccn1`, 262 nM.
On the same count and under the same terms, as for `C[C@@H]1CN([C@@H](C)CO)C(=O)c2cc(NC(=O)Nc3ccc(C(F)(F)F)cc3)ccc2O[C@@H](C)CCCCO[C@@H]1CN(C)CC1CCCCC1`, the figure is 1860 nM.
Regarding `C[C@@H]1CN([C@@H](C)CO)C(=O)c2cc(NC(=O)Nc3ccc4c(c3)OCO4)ccc2O[C@H]1CN(C)CC1CCCCC1`, the AC35 is 895 nM.
On the same count and under the same terms, the same measure for `O=C(CSc1nnc2c3ccccc3n(Cc3ccccc3)c2n1)NCc1ccco1`: 2100 nM; for `COc1ccccc1[C@]1(C)ON(c2ccccc2C(F)(F)F)C1=O`: 8160 nM; for `C/C(=N\NC(=S)Nc1cccc(Cl)c1)c1ccccn1`: 314 nM.
Still for that read-out and setting: as for `Cc1ccnc(NC(=O)c2ccc(C(=O)c3ccccc3)cc2)c1`, the figure is 11000 nM.
For `CC(C)=CCN(C(=O)C#Cc1ccccc1)[C@H](CO)c1ccccc1`, the AC35 was 1880 nM.
On to `S=C(NCc1ccccn1)N/N=C/c1ccccn1`, for which the AC35 was 1010 nM.
Regarding `C/C(=N\NC(=S)N1CCCCC1)c1cccc(C)n1`, the AC35 was 259 nM.
Take `C/C=C/C/C=C/CCC(=O)[C@H]1O[C@H]1C(N)=O`: the AC35 was 12000 nM.
For `Cc1ccc(S(=O)(=O)Nc2ccc3c(c2)C(=O)N([C@@H](C)CO)C[C@H](C)[C@@H](CN(C)C(=O)CCC(F)(F)F)OCCCC[C@H](C)O3)cc1`, the AC35 was 288 nM.
Same read-out and setting: as for `C/C(=N\NC(=S)N1CC2CCC(CC2)C1)c1ccccn1`, the figure is 1180 nM.
Still for that read-out and setting: the same measure for `C/C(=N\NC(=S)N1CC2CCC(CC2)C1)c1cccc(C)n1`: 637 nM.
Same read-out and setting: the same measure for `C[C@H](CO)N1C[C@H](C)[C@@H](CN(C)Cc2ccc(-c3ccccc3)cc2)Oc2ccc(NC(=O)Nc3cccc4ccccc34)cc2CC1=O`: 2360 nM; for `C/C(=N\NC(=S)Nc1ccc(C)cc1)c1ccccn1`: 142 nM; for `COc1ccc(NC(=O)c2ccc(OC(C)C(=O)O)cc2)cc1Cl` (centres undefined): 11800 nM.
Regarding `C[C@@H]1CCCCO[C@H](CN(C)C(=O)NC2CCCCC2)[C@H](C)CN([C@@H](C)CO)C(=O)c2cc(NC(=O)C3CCCCC3)ccc2O1`, the AC35 is 6420 nM.
Still for that read-out and setting: as for `Cc1ccc(NC(=O)C2CCN(S(=O)(=O)c3ccc4c(c3)NC(=O)C(C)S4)CC2)cc1Cl` (centres undefined), the figure is 1650 nM.

Source of the values: PubChem BioAssay AID624373 (Broad Institute, 2012).
